Reference: US20110110916A1, “METHODS FOR TREATING AND/OR PREVENTING CARDIOMYOPATHIES BY ERK OR JNK INHIBITION” (priority 2008, published 2011)
“Also recorded” adds a separate entry of the source.

Columns and labels:
Type in all cases: in vivo, mouse
Lmna^H222P/H222P mice [1] = assay: Deaths during the 4-week treatment protocol; details: 4-week treatment from 16 weeks; PD98059 n=22, SP600125 n=29; DMSO 6 of n=28
Excerpt: (§1) We assigned male Lmna^H222P/H222P mice 16 weeks of age to 3 different treatment arms (placebo DMSO, n=28; MEK1/2 inhibitor PD98059, n=22; JNK inhibitor SP600125, n=29) and examined parameters of cardiac structure and function at 20 weeks of age, after 4 weeks treatment. […] Lmna^H222P/H222P mice also have depressed cardiac contractility, with fractional shortening (FS) decreased by 20%-40% compared to Lmna^+/+ mice (13,15). Myocardial fibrosis occurs in Lmna^H222P/H222P mice at 16 weeks of age (16). At 20 weeks, LVEDD and LVESD increase further in Lmna^H222P/H222P mice and cardiac contractility also progressively deteriorates (16). During the 4-week treatment protocol, 6 mice in the DMSO group, 3 in the PD98059 group and 3 in the SP600125 group died prior to reaching 20 weeks of age for evaluation.

[2] = system: hearts from Lmna^H222P/H222P mice; assay: Histopathological analysis of hearts (left ventricle, cardiomyocyte nuclear length); details: for mean lengths of nuclei in cardiomyocytes compared to the DMSO-treated group: 20 weeks of age, treated 16 to 20 weeks
Method: Mice were sacrificed at 16 weeks of age and freshly removed hearts were fixed in 4% formaldehyde for 48 hours, embedded in paraffin, sectioned at […] and stained with hematoxylin and eosin and Masson's trichrome. Representative stained sections were photographed using a Microphot SA (Nikon) light microscope attached to a Spot RT Slide camera (Diagnostic Instruments). Images were processed using Adobe Photoshop 6.0 (Adobe Systems). Length of cardiomyocytes was measured using Scion Image software (Scion Corporation). Data were reported as means±standard deviations and are compared with respective controls using a two-tailed t test.
Mice were sacrificed at 20 weeks of age, and freshly removed hearts were fixed in 4% formaldehyde for 48 hours, embedded in paraffin, sectioned at 5 μm and stained with hematoxylin, eosin and Gomori's trichrome and Syrius Red. Representative stained sections were photographed using a Microphot SA (Nikon) light microscope attached to a Spot RT Slide camera (Diagnostic Instruments) with a 10× objective. Images were processed using Adobe Photoshop CS (Adobe Systems).

Lmna^H222P/H222P mice [3] = assay: Transthoracic echocardiography at 20 weeks of age, PD98059 or SP600125 from 16 to 20 weeks; details: for LVESD compared to DMSO-treated mice: 3 mg/kg/day; for FS and EF: after 4 weeks of treatment; for HR: heart rate; for further deterioration in cardiac function: treated from 16 to 20 weeks of age
Method: Using the methods described in Example 2, we treated Lmna^H222P/H222P mice with PD98059 alone or SP600125 alone, starting at 16 weeks of age, when ejection fraction has already deteriorated and left ventricular end diastolic diameter is increased, until 20 weeks of age.
SP600125, an anthrapyrazolone inhibitor of JNK, and PD98059, a 2′-amino-3′-methoxyflavone MAPK/ERK kinase (MEK) ½ inhibitor, (Calbiochem) were dissolved in dimethyl sulfoxide (DMSO) (Sigma) at a concentration of 1 mg/ml and were delivered to a dose of 3 mg/kg/day for 5 days a week. The placebo control consisted of DMSO alone and was delivered in the same volume. Placebo and inhibitors were administered by intraperitoneal injection using a 27⅝-gauge syringe. Treatments were started when mice were 16 weeks of age and continued until 20 weeks of age or when the mice were 19 weeks and continued until 24 weeks of age.
At 20 weeks or 24 weeks of age, mice were anesthetized with 1.5% isoflurane in O2 and placed on a heating pad (37° C.). Cardiac function was assessed by echocardiography with a Visualsonics Vevo 770 ultrasound with a 30 MHz transducer applied to the chest wall. Cardiac ventricular dimensions and fractional shortening (FS) were measured in 2D mode and M-mode three times in a modified short axis view for the number of animals indicated. A “blinded” echocardiographer (J.S.), unaware of the genotype or treatment, performed the examinations.
as §1

[4] = 20 weeks of age, 3 mg/kg/day i.p. from 16 to 20 weeks
[5] = 20 weeks of age, 3 mg/kg/day i.p. from 16 to 20 weeks, means ± SEM
[6] = Lmna^H222P/H222P mice at 20 weeks of age, treated from 16 to 20 weeks, means ± SEM
[7] = Lmna^H222P/H222P mice at 20 weeks of age, treated from 16 to 20 weeks, means ± standard deviations
[8] = Lmna^H222P/H222P mice at 20 weeks of age, treated from 16 to 20 weeks

SMILES	mice that died prior to reaching 20 weeks of age (Lmna^H222P/H222P mice [1])	abnormal elongation of cardiomyocyte nuclei ([2]; 16 week-old mice, treated 8 to 16 weeks)	mean lengths of nuclei in cardiomyocytes compared to the DMSO-treated group [2]	LVEDD compared to DMSO-treated mice (Lmna^H222P/H222P mice [3]; [4])	increase of EF compared to the DMSO-treated group (Lmna^H222P/H222P mice [3]; [4])	LVESD compared to DMSO-treated mice (Lmna^H222P/H222P mice [3]; [4])	EF (Lmna^H222P/H222P mice [3]; [5])	FS and EF (Lmna^H222P/H222P mice [3]; 20 weeks of age)	EF (Lmna^H222P/H222P mice [3]; [6]) [%]	FS (Lmna^H222P/H222P mice [3]; [6]) [%]	LVEDD (Lmna^H222P/H222P mice [3]; [6]) [mm]	LVESD (Lmna^H222P/H222P mice [3]; [6]) [mm]	EF (Lmna^H222P/H222P mice [3]; [7]) [%]	FS (Lmna^H222P/H222P mice [3]; [7]) [%]	IVSD (Lmna^H222P/H222P mice [3]; [7]) [mm]	LVEDD (Lmna^H222P/H222P mice [3]; [7]) [mm]	LVESD (Lmna^H222P/H222P mice [3]; [7]) [mm]	LVPW (Lmna^H222P/H222P mice [3]; [7]) [mm]	HR (Lmna^H222P/H222P mice [3]; [8]) [beats per minute]	further deterioration in cardiac function (Lmna^H222P/H222P mice [3])
COc1cccc(-c2cc(=O)c3ccccc3o2)c1N [PD98059, 2-(2-amino-3-methoxyphenyl)-4H-1-benzopyran-4-one]	3	prevented	significantly shorter	not significantly different	approximately 22%	significantly smaller; also recorded: statistically significant reduction	65.46%±2.64%	increased	65.46 ± 2.64	35.91 ± 1.88	3.55 ± 0.11	2.41 ± 0.11	65.46 ± 11.49	35.91 ± 8.21	0.66 ± 0.05	3.55 ± 0.50	2.41 ± 0.50	0.69 ± 0.08	350	prevented further deterioration
O=C1c2ccccc2-c2n[nH]c3cccc1c23 [SP600125, anthra[1,9-cd]pyrazol-6(2H)-one]	3		significantly shorter	not significantly different		significantly smaller; also recorded: statistically significant reduction	61.88%±1.66%	increased	61.88 ± 1.66	33.11 ± 1.16	3.73 ± 0.08	2.67 ± 0.10	61.88 ± 8.46	33.11 ± 5.92	0.63 ± 0.07	3.73 ± 0.42	2.67 ± 0.49	0.66 ± 0.09	363	prevented further deterioration
